Test results reported in ChEMBL document CHEMBL5316333, “Potent Long-Acting Inhibitors Targeting the HIV-1 Capsid Based on a Versatile Quinazolin-4-one Scaffold” (J Med Chem, 2023).
Converted amounts (≈) assume the structure as drawn. Blank lines part the entries; values can stand above or below the compound they belong to.

Legend:
[1] = Cmax in female Beagle dog at 100 mg/kg, po QD and measured after 1 day by LC-MS/MS analysis; assay type: ADME, organism-based, Canis lupus familiaris; set-up: dose 100 mg/kg, time 1 day, route po; conditions: in vivo
[2] = Toxicity in male Beagle dog assessed as fold increase in TBA level […] at 100 mg/kg, po QD for 7 days relative to baseline pretreatment; assay type: organism-based, Canis lupus familiaris; conditions: in vivo, 168 h, time 7 day
[3] = Clearance in Sprague-Dawley rat at 1 mg/kg, iv and measured upto 96 hrs by LC-MS/MS analysis; assay type: ADME, organism-based; conditions: in vivo
[4] = Toxicity in male Beagle dog assessed as fold increase in ALP level […] at 100 mg/kg, po QD for 7 days relative to baseline pretreatment; assay type: organism-based, Canis lupus familiaris; conditions: in vivo, 168 h, time 7 day
[5] = Half life in Beagle dog plasma at 5 mg/kg,SC and measured after 21 days by LC-MS/MS analysis; assay type: ADME, organism-based, Canis lupus familiaris; conditions: time 21 day
[6] = Solubility of the compound at pH 2 buffer; assay type: physicochemical
[7] = Plasma concentration in Wistar Han rat at 20 mg/kg, IM and measured at 21 days by LC-MS/MS analysis; assay type: ADME, organism-based; conditions: time 21 day
[8] = Half life in Beagle dog plasma at 5 mg/kg,IM and measured after 21 days by LC-MS/MS analysis; assay type: ADME, organism-based, Canis lupus familiaris; conditions: time 21 day
[9] = Solubility of the compound in FaSSGF at pH 1.6; assay type: physicochemical
[10] = AUC (0 to 24) in male Beagle dog at 100 mg/kg, po QD and measured after 7 days by LC-MS/MS analysis; assay type: ADME, organism-based, Canis lupus familiaris; set-up: dose 100 mg/kg, time 7 day, route po; conditions: in vivo
[11] = Toxicity in male Beagle dog assessed as fold increase in GLDH level […] at 100 mg/kg, po QD for 7 days relative to baseline pretreatment; assay type: organism-based, Canis lupus familiaris; conditions: in vivo, 168 h, time 7 day
[12] = Toxicity in male Beagle dog assessed as fold increase in ALT level […] at 100 mg/kg, po QD for 7 days relative to baseline pretreatment; assay type: organism-based, Canis lupus familiaris; conditions: in vivo, 168 h, time 7 day
[13] = system: Human immunodeficiency virus 1; assay: Antiviral activity against HIV-1 NLRep-Rluc infected in human MT2 cells assessed as inhibition of viral growth incubated for 96 hrs by renilla luciferase assay; assay type: functional, organism-based
[14] = Half life in Wistar Han rat plasma at 20 mg/kg, IM and measured after 21 days by LC-MS/MS analysis; assay type: ADME, organism-based; conditions: time 21 day
[15] = Solubility of the compound at pH 6.5 buffer; assay type: physicochemical
[16] = Half life in Wistar Han rat plasma at 20 mg/kg, SC and measured after 21 days by LC-MS/MS analysis; assay type: ADME, organism-based; conditions: time 21 day
[17] = Plasma concentration in Wistar Han rat at 20 mg/kg, SC and measured at 21 days by LC-MS/MS analysis; assay type: ADME, organism-based; conditions: time 21 day
[18] = Toxicity in male Beagle dog assessed as fold increase in AST level […] at 100 mg/kg, po QD for 7 days relative to baseline pretreatment; assay type: organism-based, Canis lupus familiaris; conditions: in vivo, 168 h, time 7 day
[19] = Toxicity in male Beagle dog assessed as increase in mitotic figures in hepatocytes at 100 mg/kg, po QD for 7 days by microscopy; assay type: organism-based, Canis lupus familiaris; conditions: in vivo, 168 h, time 7 day
[20] = Solubility of compound in FeSSIF at pH 5; assay type: physicochemical
[21] = AUC (0 to 24) in female Beagle dog at 100 mg/kg, po QD and measured after 1 day by LC-MS/MS analysis; assay type: ADME, organism-based, Canis lupus familiaris; set-up: time 1 day, dose 100 mg/kg, route po; conditions: in vivo
[22] = Plasma concentration in Beagle dog at 5 mg/kg, IM and measured after 10 days by LC-MS/MS analysis; assay type: ADME, organism-based, Canis lupus familiaris; conditions: time 10 day
[23] = Toxicity in female Beagle dog assessed as change in TBA level at 100 mg/kg, po QD for 7 days relative to baseline pretreatment; assay type: organism-based, Canis lupus familiaris; conditions: in vivo, 168 h, time 7 day
[24] = Toxicity in female Beagle dog assessed as change in GLDH level at 100 mg/kg, po QD for 7 days relative to baseline pretreatment; assay type: organism-based, Canis lupus familiaris; conditions: in vivo, 168 h, time 7 day
[25] = Half life in Wistar Han rat plasma at 1 mg/kg,iv and measured upto 96 hrs by LC-MS/MS analysis; assay type: ADME, organism-based
[26] = Toxicity in female Beagle dog assessed as change in ALT level at 100 mg/kg, po QD for 7 days relative to baseline pretreatment; assay type: organism-based, Canis lupus familiaris; conditions: in vivo, 168 h, time 7 day
[27] = Toxicity in female Beagle dog assessed as change in ALP level at 100 mg/kg, po QD for 7 days relative to baseline pretreatment; assay type: organism-based, Canis lupus familiaris; conditions: in vivo, 168 h, time 7 day
[28] = Plasma concentration in Beagle dog at 5 mg/kg, SC and measured after 10 days by LC-MS/MS analysis; assay type: ADME, organism-based, Canis lupus familiaris; conditions: time 10 day
[29] = Drug metabolism in Beagle dog plasma assessed as metabolite formation at 100 mg/kg, po for 7 days by LC-MS/MS analysis; assay type: ADME, organism-based, Canis lupus familiaris; conditions: in vivo, 168 h, time 7 day
[30] = Cmax in female Beagle dog at 100 mg/kg, po QD and measured after 7 days by LC-MS/MS analysis; assay type: ADME, organism-based, Canis lupus familiaris; set-up: time 7 day, dose 100 mg/kg, route po; conditions: in vivo
[31] = Solubility of the compound in FaSSIF at pH 6.5; assay type: physicochemical
[32] = Cmax in male Beagle dog at 100 mg/kg, po QD and measured after 7 days by LC-MS/MS analysis; assay type: ADME, organism-based, Canis lupus familiaris; set-up: dose 100 mg/kg, time 7 day, route po; conditions: in vivo
[33] = Toxicity in male Beagle dog assessed as hyperplasia of Kupffer cells at 100 mg/kg, po QD for 7 days by microscopy; assay type: organism-based, Canis lupus familiaris; conditions: in vivo, 168 h, time 7 day
[34] = AUC (0 to 24) in male Beagle dog at 100 mg/kg, po QD and measured after 1 day by LC-MS/MS analysis; assay type: ADME, organism-based, Canis lupus familiaris; set-up: dose 100 mg/kg, time 1 day, route po; conditions: in vivo
[35] = Toxicity in female Beagle dog assessed as change in AST level at 100 mg/kg, po QD for 7 days relative to baseline pretreatment; assay type: organism-based, Canis lupus familiaris; conditions: in vivo, 168 h, time 7 day
[36] = AUC (0 to 24) in female Beagle dog at 100 mg/kg, po QD and measured after 7 days by LC-MS/MS analysis; assay type: ADME, organism-based, Canis lupus familiaris; set-up: dose 100 mg/kg, time 7 day, route po; conditions: in vivo
[37] = Cmax in male Beagle dog at 100 mg/kg, po QD and measured after 1 day by LC-MS/MS analysis; assay type: ADME, organism-based, Canis lupus familiaris; set-up: time 1 day, dose 100 mg/kg, route po; conditions: in vivo
MT2 = assay: (§1) Cytotoxicity against human MT2 cells assessed as reduction in cell viability incubated for 4 days by XTT assay; assay type: toxicity, cell-based; conditions: mt2, 96 h, 96 h, time 4 day
[38] = Selectivity index, ratio of CC50 for cytotoxicity against human MT2 cells to EC50 for antiviral activity against HIV-1 NLRep-Rluc infected in human MT2 cells; assay type: toxicity, cell-based; conditions: read-out: Ratio CC50/EC50
[39] = as §1; assay type: toxicity, cell-based; conditions: MT2 cells, time 4 day

Cmax [1]: 344 ng/mL | clearance [3]: 8.9 mL/min/kg | half-life [5]: 39 h | solubility [6]: < 1 µg/mL | concentration at 504 h [7]: 10 ng/mL | half-life [8]: 39 h | solubility [9]: < 1 µg/mL | AUC at 168 h [10]: 299000 ng·h/mL | half-life [14]: 39 h | solubility [15]: < 1 µg/mL | half-life [16]: 39 h | concentration at 504 h [17]: 10 ng/mL | solubility [20]: 22 µg/mL (≈ 24 µM) | AUC at 24 h [21]: 1360 ng·h/mL | concentration at 240 h [22]: < 2.2 ng/mL | half-life [25]: 3.2 h | concentration at 240 h [28]: < 2.2 ng/mL | Drug metabolism [29]: Metabolite_Detected | Cmax [30]: 1320 ng/mL | solubility [31]: < 1 µg/mL | Cmax [32]: 13600 ng/mL | AUC at 24 h [34]: 3710 ng·h/mL | AUC at 168 h [36]: 6780 ng·h/mL | Cmax [37]: 451 ng/mL
SMILES: C[C@@H]1CN(c2ccc3c(=O)n(-c4ccc(Cl)c5c(NS(C)(=O)=O)nn(C)c45)c([C@H](Cc4cc(F)cc(F)c4)NC(=O)Cn4nc(C(F)F)c5c4C(F)(F)[C@@H]4C[C@H]54)nc3c2)C[C@H](C)O1
fold change (FC) [2]: 3 | fold change (FC) [4]: 4.9 | fold change (FC) [11]: 94 | fold change (FC) [12]: 87 | EC50 ([13]; Human immunodeficiency virus 1, NLRep-Rluc, MT2, 96 h): 0.039 nM | fold change (FC) [18]: 4.8 | Activity [19]: Toxic | Activity [23]: Non-Toxic | Activity [24]: Non-Toxic | Activity [26]: Non-Toxic | Activity [27]: Non-Toxic | Activity [33]: Toxic | Activity [35]: Non-Toxic

clearance [3]: 8.3 mL/min/kg
SMILES: COc1ccc2c(=O)n(-c3ccc(Cl)c4c(NS(C)(=O)=O)nn(C)c34)c([C@H](Cc3cc(F)cc(F)c3)NC(=O)Cn3nc(C(F)F)c4c3C(F)(F)[C@@H]3C[C@H]43)nc2c1 (stereo in doubt; 12b)
CC50 (MT2): > 20000 nM | selectivity ratio [38]: > 1000 | EC50 ([13]; mt2): 0.058 nM

SMILES: COc1ccc2nc([C@H](Cc3cc(F)cc(F)c3)NC(=O)Cn3nc(C(F)F)c4c3C(F)(F)[C@@H]3C[C@H]43)n(-c3ccc(Cl)c4c(NS(C)(=O)=O)nn(C)c34)c(=O)c2c1 (stereo in doubt; 12c)
CC50 at 96 h [39]: > 20000 nM | selectivity ratio [38]: > 1000 | EC50 ([13]; mt2): 0.15 nM
